# The RepoRT retention time repository (doi:10.1016/j.chroma.2015.11.014)
# Experiment: RP, Agilent ZORBAX Eclipse Plus C18, 150 × 2.1 mm, 3.5 µm, 40 °C, 0.3 mL/min, estimated dead time 1.1 min; A: water + 0.1% formic acid; B: acetonitrile + 0.1% formic acid; gradient (min/%B) 0/2 1/2 2/20 16.5/98 22/98
# Conditions: stereoisomer not certain
row,Compound,LC retention time
1,Cc1c[nH]c(=O)[nH]c1=O,3.23 min
2,CNC(=O)ON=CC(C)(C)SC,8.4 min
3,Cc1ccc(-c2nc3ccccc3[nH]2)cc1,6.06 min
4,CC12CCC3c4ccc(O)cc4CCC3C1CC(O)C2=O (stereo not drawn),8.67 min
5,N#CC(C(=O)O)=C(c1ccccc1)c1ccccc1,13.7 min
6,CC(C(=O)O)c1ccc2cc(O)ccc2c1 (stereo not drawn),8.5 min
7,CCCCCCN1C=CN(C)C1,5.73 min
8,CCCCCCCCCCCCCCCCCC[N+](C)(C)Cc1ccccc1,14.9 min
9,CC(Cc1ccc(C(C)C(=O)O)cc1)C(=O)O (stereo not drawn),8.48 min
10,O=C(c1ccccc1)c1ccc2n1CCC2C(=O)O (stereo not drawn),9.5 min
11,CC12CCC3C4CCC(=O)C=C4CCC3C1CCC2O (stereo not drawn),10.4 min
12,C[N+](C)([O-])CCOC(c1ccccc1)c1ccccc1,8.07 min
13,Cc1cc(C2CCCCC2)n(O)c(=O)c1,4.49 min
14,COC(=O)c1cccc(O)c1,7.88 min
15,CCOC(=O)C1=C(C)NC(C)=C(C(=O)OC)C1c1cccc([N+](=O)[O-])c1 (stereo not drawn),12.4 min
16,C[N+](C)(CCOc1ccccc1)Cc1ccccc1,7.14 min
17,CC(=O)Nc1cccc(O)c1,5.68 min
18,NCCCCC(NC(CCc1ccccc1)C(=O)O)C(=O)N1CCCC1C(=O)O (stereo not drawn),5.18 min
19,Cc1nnc(-c2ccccc2)c(=O)[nH]1,6.12 min
20,Nc1ncnc2c1ncn2CCOCP(=O)(O)O,2.12 min

row,Compound,LC retention time
1,O=S(=O)(O)c1ccc2nc(-c3ccccc3)[nH]c2c1,5.04 min
2,NC(Cc1ccc(Oc2ccc(O)cc2)cc1)C(=O)O (stereo not drawn),5.62 min
3,N#CSCSc1nc2ccccc2s1,12.4 min
4,CCOC(=O)C(C)[P+](c1ccccc1)(c1ccccc1)c1ccccc1 (stereo not drawn),8.09 min
5,CCCCCCCCCCCCCC[N+](C)(C)C,11.5 min
6,CCOP(=O)(OCC)OCC,7.41 min
7,COC(=O)Nc1nc2ccc(C(=O)c3ccccc3)cc2[nH]1,8.67 min
8,C[N+](C)(C)c1ccccc1,2.83 min
9,c1ccc(-c2nc3ccccc3[nH]2)cc1,5.9 min
10,CCc1cccc(C)c1N,7.96 min
11,CCCCCCCCCCCCCCCC[N+](C)(C)CC,13 min
12,CC(=O)OC1(C(C)=O)CCC2C3CC(C)C4=CC(=O)CCC4(C)C3CCC21C (stereo not drawn),13.7 min
13,Cc1ccc(NC(=O)c2ccc(CN3CCN(C)CC3)cc2)cc1Nc1nccc(-c2cccnc2)n1,6.15 min
14,CCCCCCCCOc1ccc(C(=O)c2ccccc2)c(O)c1,19 min
15,COCP(=O)(c1ccccc1)c1ccccc1,8.67 min
16,Nc1ccn(C2CSC(CO)O2)c(=O)n1 (stereo not drawn),3.1 min
17,CC[N+](CC)(CC)Cc1ccccc1,5.09 min
18,COc1cc(-c2oc3cc(O)cc(O)c3c(=O)c2O)ccc1O,9.42 min
19,CC12CCC(=O)C=C1CCC1C2C(O)CC2(C)C1CCC2(O)C(=O)CO (stereo not drawn),8.32 min
20,CC(=O)Nc1ccc(C)cc1,7.71 min

row,Compound,LC retention time
1,CCOP(=S)(OCC)Oc1cc(C)nc(C(C)C)n1,14.5 min
2,CCCCC1=NC2(CCCC2)C(=O)N1Cc1ccc(-c2ccccc2-c2nn[nH]n2)cc1,9.35 min
3,Cc1cc(N)no1,4.41 min
4,CC(=O)C1CCC2C3CCC4=CC(=O)CCC4(C)C3C(O)CC12C (stereo not drawn),10.3 min
5,CC(C)Cc1ccc(C(C)C(=O)O)cc1 (stereo not drawn),12.8 min
6,Cn1cnc2c(=O)[nH]c(=O)[nH]c21,2.38 min
7,Cc1cn(C2CC(O)C(CO)O2)c(=O)[nH]c1=O (stereo not drawn),4.53 min
8,CSc1nc(NC2CC2)nc(NC(C)(C)C)n1,10.2 min
9,COC(=O)Nc1cccc(N)c1C,4.42 min
10,CSc1nc(NC(C)C)nc(NC(C)C)n1,9.53 min
11,CCCCCCCCCCCC[N+](C)(C)CCCCCCCCCCCC,15.3 min
12,CC12CCC(=O)C=C1CCC1C2C(=O)CC2(C)C1CCC2(O)C(=O)CO (stereo not drawn),8.4 min
13,C[P+](c1ccccc1)(c1ccccc1)c1ccccc1,7.19 min
14,CCC1OC(=O)C(C)C(OC2CC(C)(OC)C(O)C(C)O2)C(C)C(OC2OC(C)CC(N(C)C)C2O)C(C)(OC)CC(C)C(=O)C(C)C(O)C1(C)O (stereo not drawn),8.86 min
15,COC1C(OC(C)=O)CC(=O)OC(C)CC=CC=CC(O)C(C)CC(CC=O)C1OC1OC(C)C(OC2CC(C)(O)C(OC(=O)CC(C)C)C(C)O2)C(N(C)C)C1O (stereo not drawn),8.87 min
16,CN1C(=O)NC(=O)C1(C)C,5.06 min
17,CCC1CCCC(OC2CCC(N(C)C)C(C)O2)C(C)C(=O)C2=CC3C(C=CC4CC(OC5OC(C)C(OC)C(OC)C5OC)CC43)C2CC(=O)O1 (stereo not drawn),10.4 min
18,CC1(C)CC(O)CC(C)(C)N1CCO,2.16 min
